We go through twelve compounds from ChEMBL document CHEMBL3797195, “Bacterial lipid membranes as promising targets to fight antimicrobial resistance, molecular foundations and illustration through the renewal of aminoglycoside antibiotics and emergence of amphiphilic aminoglycosides” (2016).

≈ marks a conversion by molar mass, not a printed value.

What all share (type): functional
Assay [1] deals with Pseudomonas aeruginosa. The experiment in a line: Antibacterial activity against clinical colistin-resistant Pseudomonas aeruginosa by microdilution method.
For assay [2], the system named is Escherichia coli. In words: Antibacterial activity against Escherichia coli ATCC 25922 after 12 to 18 hrs by two fold dilution method.
Assay [3] concerns Staphylococcus aureus. The experiment in a line: Antibacterial activity against Staphylococcus aureus ATCC 25923 after 12 to 18 hrs by two fold dilution method.
Assay [4] concerns Escherichia coli. The experiment in a line: Antibacterial activity against Escherichia coli ATCC 25922 after 24 hrs by MTT assay. The settings on record: ATCC 25922, 24 h. On the technique in general: Tetrazolium dyes change colour on reduction, which living cells bring about.
Another assay concerns Klebsiella pneumoniae. The experiment in a line: Antibacterial activity against Klebsiella pneumoniae after 12 to 18 hrs by MTT assay.
In assay [5] the test system is Pseudomonas aeruginosa. In words: Antibacterial activity against Pseudomonas aeruginosa after 12 to 18 hrs by MTT assay.
Assay [6] concerns Staphylococcus aureus. In words: Antibacterial activity against methicillin-resistant Staphylococcus aureus after 24 hrs by MTT assay.

On to `NC[C@H]1O[C@H](O[C@H]2[C@H](O)[C@@H](OCCCc3ccc4ccccc4c3)[C@H](N)C[C@@H]2N)[C@H](N)[C@@H](OCCCc2ccc3ccccc3c2)[C@@H]1O`, for which, in the assay with Pseudomonas aeruginosa [1], the minimum inhibitory concentration (MIC) came out at 2 µg/mL (≈ 3.04 µM). Turning to `CCCCCCCCO[C@H]1[C@@H](O[C@@H]2[C@@H](O)[C@H](O[C@H]3O[C@H](CN)[C@@H](O)[C@H](O)[C@H]3N)[C@@H](N)C[C@H]2N)O[C@H](CO)[C@@H](O)[C@@H]1O`, the MIC against Escherichia coli [2] and in the assay on Staphylococcus aureus [3] was > 32 µg/mL throughout.

`NC[C@H]1O[C@H](O[C@H]2[C@H](O)[C@@H](OCCCCCCCCCc3ccc4ccccc4c3)[C@H](N)C[C@@H]2N)[C@H](N)[C@@H](OCCCCCCCCCc2ccc3ccccc3c2)[C@@H]1O` displayed a minimal inhibitory concentration (MIC) in the assay on Pseudomonas aeruginosa [1] of 2 µg/mL (≈ 2.42 µM). The same measure, in the same setting: then `NC[C@H]1O[C@H](O[C@H]2[C@H](O)[C@@H](OCCCCc3ccc4ccccc4c3)[C@H](N)C[C@@H]2N)[C@H](N)[C@@H](OCCCCc2ccc3ccccc3c2)[C@@H]1O`, with 2 µg/mL (≈ 2.91 µM). For `CCCCCCCCO[C@@H]1[C@@H](N)[C@H](O)[C@H](O[C@H]2[C@H](O)[C@@H](O[C@@H]3O[C@@H](CN)[C@H](O)[C@@H](O)[C@@H]3N)[C@H](N)C[C@@H]2N)O[C@H]1CO` (single isomer, unassigned), the MIC in the assay on Escherichia coli [2] and against Staphylococcus aureus [3] was > 32 µg/mL throughout. Take `CCCCCCCCOC[C@@H]1O[C@@H](O[C@@H]2[C@@H](O)[C@H](O[C@@H]3O[C@@H](CN)[C@H](O)[C@@H](O)[C@@H]3N)[C@@H](N)C[C@H]2N)[C@@H](O)[C@H](O)[C@H]1O` (stereo in doubt): the MIC against Escherichia coli [2] and against Staphylococcus aureus [3] was > 32 µg/mL in each case.

Consider `CCCCCCCCO[C@@H]1[C@@H](O[C@H]2O[C@H](CN)[C@@H](O)[C@H](O)[C@H]2N)[C@H](N)C[C@H](N)[C@H]1O[C@H]1O[C@H](CO)[C@@H](O)[C@H](O)[C@H]1O` (stereo in doubt), for which the MIC in the assay on Escherichia coli [2] and with Staphylococcus aureus [3] was > 32 µg/mL each time. Take `CCCCCCOC[C@@H]1O[C@@H](O[C@@H]2[C@@H](O)[C@H](O[C@@H]3O[C@@H](CN)[C@H](O)[C@@H](O)[C@@H]3N)[C@@H](N)C[C@H]2N)[C@@H](O)[C@H](O)[C@H]1O` (stereo in doubt): the MIC in the assay with Escherichia coli [2] and with Staphylococcus aureus [3] was > 32 µg/mL in each case. As for `CCCCCCCCO[C@@H]1[C@@H](O[C@H]2O[C@H](CN)[C@@H](O)[C@H](O)[C@H]2N)[C@H](N)C[C@H](N)[C@H]1O[C@H]1O[C@H](CO)[C@@H](O)[C@H](N)[C@H]1O` (stereo in doubt), the MIC against Escherichia coli [2] and with Staphylococcus aureus [3] was > 32 µg/mL throughout. Turning to `CCCCCCCO[C@@H]1[C@@H](OCCCCCCC)[C@H](N)C[C@H](N)[C@H]1O[C@H]1O[C@H](CN)[C@@H](OCCCCCCC)C[C@H]1N`, the MIC was 4 µg/mL (≈ 6.66 µM) against Escherichia coli [4], 4 µg/mL (≈ 6.66 µM) in the assay with Klebsiella pneumoniae, 4 µg/mL (≈ 6.66 µM) with Pseudomonas aeruginosa [5] and 1 µg/mL (≈ 1.66 µM) against Staphylococcus aureus [6]. As to `CCCCCCCCO[C@@H]1[C@@H](O)[C@H](O)[C@H](O[C@H]2[C@H](O)[C@@H](O[C@@H]3O[C@@H](CN)[C@H](O)[C@@H](O)[C@@H]3N)[C@H](N)C[C@@H]2N)O[C@H]1CO` (single isomer, unassigned), the minimum inhibitory concentration (MIC) in the assay with Escherichia coli [2] and against Staphylococcus aureus [3] was > 32 µg/mL throughout.

As for `CCCCCCCCO[C@@H]1[C@@H](O)[C@@H](O[C@@H]2[C@@H](O)[C@H](O[C@H]3O[C@H](CN)[C@@H](O)[C@H](O)[C@H]3N)[C@@H](N)C[C@H]2N)O[C@H](CO)[C@H]1O`, the minimum inhibitory concentration (MIC) against Escherichia coli [2] and against Staphylococcus aureus [3] was > 32 µg/mL throughout.

One may read the MIC as the smallest concentration in the dilution series that meets the test's criterion for growth inhibition. Low values mean a more susceptible organism, high ones a less susceptible organism.
